Results taken from patent US7238681B2, “2-Methylene-18,19-dinor-1α-hydroxy-homopregnacalciferol and its uses” (Wisconsin Alumni Research Foundation, priority 2004, dated 2007).
“Also recorded” adds a separate entry of the source.

Key:
[1] = system: Sprague-Dawley rats; experiment: Intestinal calcium transport, everted gut sac method, in vitamin D-deficient rats; assay type: in vivo, rat
Experimental: (§1) Male, weanling Sprague-Dawley rats were placed on Diet 11 (0.47% Ca) diet+AEK for one week followed by Diet 11 (0.02% Ca)+AEK for 3 weeks. The rats were then switched to a diet containing 0.47% Ca for one week followed by two weeks on a diet containing 0.02% Ca. Dose administration began during the last week on 0.02% calcium diet. Four consecutive ip doses were given approximately 24 hours apart. Twenty-four hours after the last dose, blood was collected from the severed neck and the concentration of serum calcium determined as a measure of bone calcium mobilization. The first 10 cm of the intestine was also collected for intestinal calcium transport analysis using the everted gut sac method.

[2] = system: 24-hydroxylase (24Ohase) gene promoter in ROS 17/2.8 (bone) cells; experiment: In vitro transcription assay (24-hydroxylase gene promoter, luciferase reporter); assay type: cell-based; conditions: FIG. 3; for EC50: ROS 17/2.8 cells, 16 hours after dosing, read-out: EC50, transcriptional activity in bone cells
Experimental: Transcription activity was measured in ROS 17/2.8 (bone) cells that were stably transfected with a 24-hydroxylase (24Ohase) gene promoter upstream of a luciferase reporter gene (Arbour et al., 1998). Cells were given a range of doses. Sixteen hours after dosing the cells were harvested and luciferase activities were measured using a luminometer. • RLU=relative luciferase units. Intestinal Calcium Transport and Bone Calcium Mobilization

[3] = system: Sprague-Dawley rats; experiment: Bone calcium mobilization (serum calcium) in vitamin D-deficient rats; assay type: in vivo, rat; conditions: for bone calcium mobilization activity (serum calcium): vitamin D-deficient rats, low calcium diet (0.02%), four consecutive ip doses, FIG. 4
Experimental: as §1

[4] = system: Human promyelocytic leukemia (HL60) cells; experiment: HL-60 differentiation (nitro blue tetrazolium reduction assay); assay type: cell-based; conditions: FIG. 2; for EC50: HL60 cells, four days
Experimental: The study drugs were dissolved in ethanol and the concentrations determined using UV spectrophotometry. Serial dilutions were prepared so that a range of drug concentrations could be tested without changing the final concentration of ethanol (≦0.2%) present in the cell cultures.
Human promyelocytic leukemia (HL60) cells were grown in RPMI-1640 medium containing 10% fetal bovine serum. The cells were incubated at 37° C. in the presence of 5% CO2.
HL60 cells were plated at 1.2×10^5 cells/ml. Eighteen hours after plating, cells in duplicate were treated with drug. Four days later, the cells were harvested and a nitro blue tetrazolium reduction assay was performed (Collins et al., 1979; J. Exp. Med. 149:969–974). The percentage of differentiated cells was determined by counting a total of 200 cells and recording the number that contained intracellular black-blue formazan deposits. Verification of differentiation to monocytic cells was determined by measuring phagocytic activity (data not shown).

[5] = target: T1, full-length recombinant rat vitamin D receptor (Rattus norvegicus, UniProt P13053); experiment: Vitamin D receptor binding, competition with [3H]-1,25(OH)2D3; conditions: FIG. 1
T1 construct: Full-length recombinant rat receptor was expressed in E. coli BL21 (DE3) Codon Plus RIL cells; histidine tag (C); made in house; host or cells: E. coli BL21 (DE3) Codon Plus RIL
T1 sequence (P13053 1-423): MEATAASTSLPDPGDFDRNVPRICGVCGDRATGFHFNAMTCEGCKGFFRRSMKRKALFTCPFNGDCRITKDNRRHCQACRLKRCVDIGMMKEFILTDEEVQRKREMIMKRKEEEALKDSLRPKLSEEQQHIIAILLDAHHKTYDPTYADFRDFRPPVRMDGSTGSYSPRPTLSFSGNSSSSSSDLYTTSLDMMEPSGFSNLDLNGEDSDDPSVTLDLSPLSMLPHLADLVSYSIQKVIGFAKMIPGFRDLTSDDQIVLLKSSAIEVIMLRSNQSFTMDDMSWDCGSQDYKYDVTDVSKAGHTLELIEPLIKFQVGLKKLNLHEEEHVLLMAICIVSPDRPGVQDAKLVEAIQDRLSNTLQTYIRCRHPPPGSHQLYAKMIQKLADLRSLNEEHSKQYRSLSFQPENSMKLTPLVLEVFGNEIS
Experimental: Full-length recombinant rat receptor was expressed in E. coli BL21 (DE3) Codon Plus RIL cells and purified to homogeneity using two different column chromatography systems. The first system was a nickel affinity resin that utilizes the C-terminal histidine tag on this protein. The protein that was eluted from this resin was further purified using ion exchange chromatography (S-Sepharose Fast Flow). Aliquots of the purified protein were quick frozen in liquid nitrogen and stored at −80° C. until use. For use in binding assays, the protein was diluted in TEDK50 (50 mM Tris, 1.5 mM EDTA, pH7.4, 5 mM DTT, 150 mM KCl) with 0.1% Chaps detergent. The receptor protein and ligand concentration were optimized such that no more than 20% of the added radiolabeled ligand was bound to the receptor.
Radiolabeled and unlabeled ligands were added to 100 mcl of the diluted protein at a final ethanol concentration of ≦10%, mixed and incubated overnight on ice to reach binding equilibrium. The following day, 100 mcl of hydroxylapatite slurry (50%) was added to each tube and mixed at 10-minute intervals for 30 minutes. The hydroxylapaptite was collected by centrifugation and then washed three times with Tris-EDTA buffer (50 mM Tris, 1.5 mM EDTA, pH 7.4) containing 0.5% Titron X-100. […] Total binding was determined from the tubes containing only radiolabeled ligand.

| Molecule | intestinal calcium transport ([1]; 2340 pmol/day) | EC50 [2] | bone calcium mobilization activity (serum calcium) [3] | intestinal calcium transport ([1]; 780 pmol/day) | EC50 [4] | transcriptional activity relative to 1α,25-dihydroxyvitamin D3 in bone cells [2] | Ki ([5]; full-length recombinant rat VDR) | binding to the receptor as compared to the standard 1,25-(OH)2D3 ([5]; relative to 1,25-(OH)2D3) | bone calcium mobilization ([3]; 780 pmol/day for 4 consecutive days) | bone calcium mobilization ([3]; 2340 pmol/day) | bone calcium mobilization ([3]; 7020 pmol/day) | intestinal calcium transport ([1]; 7020 pmol/day) | intestinal calcium transport activity ([1]; vitamin D-deficient rats, low calcium diet (0.02%), four consecutive ip doses, FIG. 5) | potency on HL-60 cell differentiation compared with 1,25(OH)2D3 [4] | EC50 ([4]; Homo sapiens, HL-60, 96 h) |
| --- | --- | --- | --- | --- | --- | --- | --- | --- | --- | --- | --- | --- | --- | --- | --- |
| 2-methylene-19-nor-1α-hydroxy-homopregnacalciferol [Compound 2MP, reference compound] | significant increase | – | – | – | – | – | – | – | – | – | – | – | – | – | – |
| C=C1/C(=C\C=C2/CCC[C@]3(C)[C@@H]([C@H](C)CCCC(C)(C)O)CC[C@@H]23)C[C@@H](O)C[C@@H]1O [1,25(OH)2D3, 1α,25-dihydroxyvitamin D3, reference compound] | – | 3.2 nM | increased serum calcium levels at all dosages | significant increase | 3.2 nM | – | – | – | – | – | – | – | – | – | – |
| C=C1[C@H](O)CC(=C/C=C2\CCC[C@@H]3[C@@H](C(C)C)CC[C@@H]23)C[C@H]1O [18,19-dinor-2MP, 2-methylene-18,19-dinor-1α-hydroxy-homopregnacalciferol] | does not promote intestinal calcium transport | 15 nM | no measurable bone calcium mobilization activity; also recorded: little, if any, activity in mobilizing calcium from bone | does not promote intestinal calcium transport | – | one-tenth | 0.22 nM | one-fifth as well | did not result in mobilization of bone calcium | without any substantial effect | without any substantial effect | does not promote intestinal calcium transport | no measurable activity; also recorded: essentially devoid of intestinal calcium transport activity | almost as potent as 1,25(OH)2D3 | 15 nM |
